Assays:
Test in all cases: Kinase profiling in a biochemical assay panel (mobility shift assays and ELISA), %-inhibition at 1 μM; selectivity entropy
[1] = target: panel of more than 300 wild-type and mutant kinases (313 kinase panel) (Homo sapiens, UniProt P04626)
[2] = target: panel of more than 300 wild-type and mutant kinases (313 kinase panel) (Homo sapiens, UniProt Q96GD4)
[3] = target: T1, panel of more than 300 wild-type and mutant kinases (313 kinase panel) (Homo sapiens, UniProt Q9UQB9)
T1 sequence (Q9UQB9 1-309): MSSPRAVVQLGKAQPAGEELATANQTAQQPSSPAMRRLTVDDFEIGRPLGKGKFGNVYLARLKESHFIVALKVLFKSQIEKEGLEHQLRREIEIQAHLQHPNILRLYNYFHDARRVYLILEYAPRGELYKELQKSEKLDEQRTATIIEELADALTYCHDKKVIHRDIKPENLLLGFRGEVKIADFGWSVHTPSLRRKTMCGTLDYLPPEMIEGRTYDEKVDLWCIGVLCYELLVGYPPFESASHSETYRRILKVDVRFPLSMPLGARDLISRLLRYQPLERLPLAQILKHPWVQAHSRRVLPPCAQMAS

[4] = target: panel of more than 300 wild-type and mutant kinases (313 kinase panel) (Homo sapiens, UniProt P27361); settings: kinase Erk1; compound at 1 μM
Chain of panel of more than 300 wild-type and mutant kinases (313 kinase panel) (Homo sapiens, UniProt P27361) (P27361 whole entry, change not shown): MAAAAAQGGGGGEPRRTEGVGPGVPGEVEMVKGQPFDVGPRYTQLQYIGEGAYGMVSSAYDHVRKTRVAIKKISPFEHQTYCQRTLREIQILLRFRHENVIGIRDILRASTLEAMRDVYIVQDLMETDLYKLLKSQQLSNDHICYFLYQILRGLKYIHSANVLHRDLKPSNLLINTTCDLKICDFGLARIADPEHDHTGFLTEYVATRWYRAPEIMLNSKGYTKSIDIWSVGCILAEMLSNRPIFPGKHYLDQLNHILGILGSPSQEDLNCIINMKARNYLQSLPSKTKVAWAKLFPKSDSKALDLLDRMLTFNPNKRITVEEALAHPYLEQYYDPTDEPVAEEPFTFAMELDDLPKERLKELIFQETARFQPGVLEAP

[5] = target: panel of more than 300 wild-type and mutant kinases (313 kinase panel) (Homo sapiens, UniProt Q9Y243); settings: kinase AKT3; 1 μM compound
Chain of panel of more than 300 wild-type and mutant kinases (313 kinase panel) (Homo sapiens, UniProt Q9Y243) (Q9Y243 whole entry, change not shown): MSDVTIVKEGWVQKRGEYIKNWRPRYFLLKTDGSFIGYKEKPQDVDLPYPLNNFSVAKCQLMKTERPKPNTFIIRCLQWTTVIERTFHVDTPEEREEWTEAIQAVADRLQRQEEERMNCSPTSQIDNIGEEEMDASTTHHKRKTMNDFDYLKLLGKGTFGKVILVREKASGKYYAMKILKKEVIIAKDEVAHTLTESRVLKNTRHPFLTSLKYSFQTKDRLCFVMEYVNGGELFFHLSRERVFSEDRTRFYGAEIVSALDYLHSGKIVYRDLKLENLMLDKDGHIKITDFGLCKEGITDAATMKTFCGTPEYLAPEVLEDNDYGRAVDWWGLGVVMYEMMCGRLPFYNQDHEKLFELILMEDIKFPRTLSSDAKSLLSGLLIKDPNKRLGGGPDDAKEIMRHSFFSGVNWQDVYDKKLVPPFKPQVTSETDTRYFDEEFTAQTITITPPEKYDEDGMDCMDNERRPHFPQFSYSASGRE

[6] = target: T2, panel of more than 300 wild-type and mutant kinases (313 kinase panel) (Homo sapiens, UniProt O43781); settings: kinase DYRK3; compound at 1 μM
T2 sequence (O43781 1-588): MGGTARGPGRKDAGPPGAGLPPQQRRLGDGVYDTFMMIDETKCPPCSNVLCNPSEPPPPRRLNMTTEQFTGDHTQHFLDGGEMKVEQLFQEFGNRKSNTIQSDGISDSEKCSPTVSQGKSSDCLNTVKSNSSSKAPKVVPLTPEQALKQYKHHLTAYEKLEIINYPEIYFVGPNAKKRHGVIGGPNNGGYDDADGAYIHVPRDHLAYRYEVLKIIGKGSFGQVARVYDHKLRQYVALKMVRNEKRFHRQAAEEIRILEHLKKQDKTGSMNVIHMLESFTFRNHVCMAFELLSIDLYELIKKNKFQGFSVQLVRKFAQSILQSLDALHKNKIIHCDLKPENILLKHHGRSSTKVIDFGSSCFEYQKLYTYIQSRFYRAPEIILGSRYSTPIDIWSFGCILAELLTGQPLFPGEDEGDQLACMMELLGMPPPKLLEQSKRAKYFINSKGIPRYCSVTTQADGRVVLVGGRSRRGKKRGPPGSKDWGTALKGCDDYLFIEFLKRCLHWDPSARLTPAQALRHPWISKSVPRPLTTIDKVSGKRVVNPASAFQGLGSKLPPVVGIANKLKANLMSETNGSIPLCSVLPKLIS

[7] = target: T3, panel of more than 300 wild-type and mutant kinases (313 kinase panel) (Homo sapiens, UniProt O15111); settings: kinase IKKα; compound at 1 μM
T3 sequence (O15111 1-745): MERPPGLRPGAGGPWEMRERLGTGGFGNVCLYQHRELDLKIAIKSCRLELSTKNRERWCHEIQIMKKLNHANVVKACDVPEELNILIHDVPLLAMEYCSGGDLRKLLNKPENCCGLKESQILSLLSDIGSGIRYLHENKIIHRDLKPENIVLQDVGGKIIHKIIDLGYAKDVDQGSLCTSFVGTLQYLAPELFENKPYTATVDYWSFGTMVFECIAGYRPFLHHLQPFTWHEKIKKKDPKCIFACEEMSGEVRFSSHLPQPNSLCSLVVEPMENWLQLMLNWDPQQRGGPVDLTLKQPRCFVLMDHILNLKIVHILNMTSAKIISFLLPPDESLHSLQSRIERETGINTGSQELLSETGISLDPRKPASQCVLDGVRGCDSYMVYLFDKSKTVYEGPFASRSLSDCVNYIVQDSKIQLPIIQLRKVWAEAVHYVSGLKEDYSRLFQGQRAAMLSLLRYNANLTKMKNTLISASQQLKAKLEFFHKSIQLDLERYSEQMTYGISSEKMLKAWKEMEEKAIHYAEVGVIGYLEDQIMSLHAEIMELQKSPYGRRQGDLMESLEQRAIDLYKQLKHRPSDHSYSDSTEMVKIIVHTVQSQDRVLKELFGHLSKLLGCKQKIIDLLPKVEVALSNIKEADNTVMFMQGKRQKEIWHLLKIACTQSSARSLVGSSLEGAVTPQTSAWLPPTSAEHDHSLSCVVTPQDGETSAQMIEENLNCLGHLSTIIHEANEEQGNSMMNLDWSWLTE

[8] = target: panel of more than 300 wild-type and mutant kinases (313 kinase panel) (Homo sapiens, UniProt Q9Y6E0); settings: kinase MST3; 1 μM
[9] = target: panel of more than 300 wild-type and mutant kinases (313 kinase panel) (Homo sapiens, UniProt Q9UQM7)
Chain of panel of more than 300 wild-type and mutant kinases (313 kinase panel) (Homo sapiens, UniProt Q9UQM7) (Q9UQM7 whole entry, change not shown): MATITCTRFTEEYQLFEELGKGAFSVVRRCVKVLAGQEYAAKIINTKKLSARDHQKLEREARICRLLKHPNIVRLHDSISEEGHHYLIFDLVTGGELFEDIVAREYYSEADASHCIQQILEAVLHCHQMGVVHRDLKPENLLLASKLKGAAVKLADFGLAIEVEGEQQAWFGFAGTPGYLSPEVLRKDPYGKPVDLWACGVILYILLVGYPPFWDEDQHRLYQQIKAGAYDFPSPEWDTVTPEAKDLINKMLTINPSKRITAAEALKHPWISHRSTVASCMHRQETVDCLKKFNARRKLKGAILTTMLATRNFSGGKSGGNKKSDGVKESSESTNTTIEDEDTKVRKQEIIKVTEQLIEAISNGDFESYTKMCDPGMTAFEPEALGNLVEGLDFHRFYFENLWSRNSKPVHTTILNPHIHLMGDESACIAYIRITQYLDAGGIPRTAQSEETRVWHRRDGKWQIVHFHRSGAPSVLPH

[10] = target: panel of more than 300 wild-type and mutant kinases (313 kinase panel) (Homo sapiens, UniProt Q15759); settings: kinase p38β; 1 μM

Chain of panel of more than 300 wild-type and mutant kinases (313 kinase panel) (Homo sapiens, UniProt Q96GD4) (Q96GD4 whole entry, change not shown): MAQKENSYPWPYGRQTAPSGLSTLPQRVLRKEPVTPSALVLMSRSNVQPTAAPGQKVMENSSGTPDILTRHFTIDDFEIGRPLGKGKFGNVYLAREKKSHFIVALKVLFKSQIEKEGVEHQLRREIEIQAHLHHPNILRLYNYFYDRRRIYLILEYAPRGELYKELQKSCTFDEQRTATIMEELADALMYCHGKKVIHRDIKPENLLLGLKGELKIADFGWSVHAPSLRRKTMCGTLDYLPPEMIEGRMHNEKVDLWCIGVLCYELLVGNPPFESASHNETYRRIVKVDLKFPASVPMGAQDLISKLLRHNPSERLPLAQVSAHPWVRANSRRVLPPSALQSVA
Chain of panel of more than 300 wild-type and mutant kinases (313 kinase panel) (Homo sapiens, UniProt P04626) (P04626 23-1255, change not shown): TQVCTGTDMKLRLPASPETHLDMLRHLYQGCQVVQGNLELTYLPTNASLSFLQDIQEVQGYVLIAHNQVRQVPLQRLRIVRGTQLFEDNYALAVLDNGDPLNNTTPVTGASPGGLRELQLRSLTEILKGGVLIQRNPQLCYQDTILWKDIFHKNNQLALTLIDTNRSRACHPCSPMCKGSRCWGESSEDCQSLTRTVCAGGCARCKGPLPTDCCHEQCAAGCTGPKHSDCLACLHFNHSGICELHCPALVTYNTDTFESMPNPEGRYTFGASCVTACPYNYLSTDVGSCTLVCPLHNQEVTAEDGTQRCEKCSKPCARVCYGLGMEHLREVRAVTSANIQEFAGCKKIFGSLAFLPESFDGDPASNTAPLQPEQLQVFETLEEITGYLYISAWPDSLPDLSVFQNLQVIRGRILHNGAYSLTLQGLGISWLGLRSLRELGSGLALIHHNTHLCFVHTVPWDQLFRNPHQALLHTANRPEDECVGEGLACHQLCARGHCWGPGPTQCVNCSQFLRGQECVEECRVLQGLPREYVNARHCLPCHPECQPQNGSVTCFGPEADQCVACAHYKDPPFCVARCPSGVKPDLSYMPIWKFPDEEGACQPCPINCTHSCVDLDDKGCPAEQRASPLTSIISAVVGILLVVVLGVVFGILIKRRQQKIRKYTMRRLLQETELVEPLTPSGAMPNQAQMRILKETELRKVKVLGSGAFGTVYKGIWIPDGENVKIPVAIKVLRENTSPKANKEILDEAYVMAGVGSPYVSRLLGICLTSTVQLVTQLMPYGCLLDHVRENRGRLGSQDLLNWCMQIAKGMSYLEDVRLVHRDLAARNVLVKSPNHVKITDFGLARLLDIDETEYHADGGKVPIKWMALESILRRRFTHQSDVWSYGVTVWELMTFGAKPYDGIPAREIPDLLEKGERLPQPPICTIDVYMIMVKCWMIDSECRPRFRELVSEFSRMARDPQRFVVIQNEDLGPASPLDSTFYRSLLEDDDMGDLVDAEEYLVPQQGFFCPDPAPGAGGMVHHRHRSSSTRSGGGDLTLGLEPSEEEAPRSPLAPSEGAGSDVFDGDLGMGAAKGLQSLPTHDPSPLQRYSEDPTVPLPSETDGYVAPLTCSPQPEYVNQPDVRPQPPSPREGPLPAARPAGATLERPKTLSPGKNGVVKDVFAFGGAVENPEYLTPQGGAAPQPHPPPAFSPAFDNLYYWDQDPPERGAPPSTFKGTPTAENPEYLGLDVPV

Structure (SMILES)	%-inhibition of HER2 ([1]; kinase HER2, compound at 1 μM) [%]	%-inhibition, AurB ([2]; kinase AurB, 1 μM compound) [%]	%-inhibition, AurC ([3]; kinase AurC, 1 μM compound) [%]	%-inhibition of Erk1 [4] [%]	%-inhibition, AKT3 [5] [%]	%-inhibition of DYRK3 [6] [%]	%-inhibition of IKKα [7] [%]	%-inhibition of MST3 [8] [%]	%-inhibition, CaMK2α ([9]; kinase CaMK2α, 1 μM compound) [%]	%-inhibition of p38β [10] [%]	%-inhibition of HER2 ([1]; 1 µM) [%]	%-inhibition, AurB ([2]; 1 µM) [%]	%-inhibition, AurC ([3]; 1 µM) [%]	%-inhibition, CaMK2α ([9]; 1 µM) [%]
O=S(=O)(c1cccc2cnccc12)N1CCCNCC1 [fasudil]	0.678	1	-0.164	-3	6	26	8	-1.29	-0.681	-2.17	–	–	–	–
CS(=O)(=O)CCNCc1ccc(-c2ccc3ncnc(Nc4ccc(OCc5cccc(F)c5)c(Cl)c4)c3c2)o1 [lapatinib]	–	–	–	-4	5	-2.24	-9	-1.84	–	-10	85	9	3.4	-4.56
Cc1cn(-c2cc(NC(=O)c3ccc(C)c(Nc4nccc(-c5cccnc5)n4)c3)cc(C(F)(F)F)c2)cn1 [nilotinib]	–	-11	5	3.21	1.58	-1.09	1.27	0.797	-5	96	4.25	–	–	–
Cc1ccc(Nc2nccc(N(C)c3ccc4c(C)n(C)nc4c3)n2)cc1S(N)(=O)=O [pazopanib]	1.07	45	58	-3.79	-0.112	-4.54	-1.68	-4.48	-0.797	18	–	–	–	–
CNC(=O)c1cc(Oc2ccc(NC(=O)Nc3ccc(Cl)c(C(F)(F)F)c3)c(F)c2)ccn1 [regorafenib]	6.43	20	22	-2	-4.23	15	-0.333	-6.62	-1.57	98	–	–	–	–
CO[C@H]1C[C@@H]2CC[C@@H](C)[C@@](O)(O2)C(=O)C(=O)N2CCCC[C@H]2C(=O)O[C@H]([C@H](C)C[C@@H]2CC[C@@H](OC(=O)C(C)(CO)CO)[C@H](OC)C2)CC(=O)[C@H](C)/C=C(\C)[C@@H](O)[C@@H](OC)C(=O)[C@H](C)C[C@H](C)/C=C/C=C/C=C/1C [temsirolimus]	-0.179	-4	0.194	0.373	-1.72	-0.454	1.39	-3.6	-7	-2	–	–	–	–
CC(=O)Nc1cccc(-n2c(=O)n(C3CC3)c(=O)c3c(Nc4ccc(I)cc4F)n(C)c(=O)c(C)c32)c1 [trametinib]	-5.36	-4	1	-1.14	-5.3	-10	2.63	1.75	-1.65	2.31	–	–	–	–
CCCS(=O)(=O)Nc1ccc(F)c(C(=O)c2c[nH]c3ncc(-c4ccc(Cl)cc4)cc23)c1F [vemurafenib]	2	6	13	0.0533	-0.678	5	-1.89	-1.73	-4.25	24	–	–	–	–

Reference: PMC3961306, “Comparison of the Cancer Gene Targeting and Biochemical Selectivities of All Targeted Kinase Inhibitors Approved for Clinical Use” (PLoS ONE, 2014)
